# ChEMBL document CHEMBL4196048, “Discovery and characterization of a potent Wnt and hedgehog signaling pathways dual inhibitor” (Eur J Med Chem, 2018)
# Active and inactive are the calls of the source. No cut-off for these calls is given here.
# Tests used:
# [1] = molecular target: T1, Protein-serine O-palmitoleoyltransferase porcupine (Mus musculus, UniProt Q9JJJ7); assay: (§1) Inhibition of porcupine in mouse L Wnt3A cells co-cultured with HEK293 cells assessed as suppression of Wnt signaling after 48 hrs by Super-top flash reporter gene assay; type: cell-based
# T1 sequence (Q9JJJ7 whole entry): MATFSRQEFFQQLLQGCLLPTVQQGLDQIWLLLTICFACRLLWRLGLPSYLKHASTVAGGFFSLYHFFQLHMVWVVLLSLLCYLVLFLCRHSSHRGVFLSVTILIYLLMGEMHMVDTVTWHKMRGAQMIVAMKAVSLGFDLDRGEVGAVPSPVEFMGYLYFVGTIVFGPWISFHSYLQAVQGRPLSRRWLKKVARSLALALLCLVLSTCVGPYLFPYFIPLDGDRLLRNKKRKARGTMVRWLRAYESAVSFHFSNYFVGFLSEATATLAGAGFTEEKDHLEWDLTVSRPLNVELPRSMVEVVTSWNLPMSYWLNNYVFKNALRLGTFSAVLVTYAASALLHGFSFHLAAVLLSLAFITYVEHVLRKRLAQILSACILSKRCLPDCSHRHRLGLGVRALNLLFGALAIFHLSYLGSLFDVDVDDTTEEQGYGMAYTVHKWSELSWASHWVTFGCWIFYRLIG
# [2] = molecular target: T2, Protein-serine O-palmitoleoyltransferase porcupine (Homo sapiens) (UniProt Q9H237); assay: Inhibition of porcupine in HEK293T cells transfected with pLibin-WNT3A plasmid assessed as reduction in Wnt3A secretion into cell culture medium at 100 nM after 48 hrs by Western blot method; type: cell-based
# T2 sequence (whole entry): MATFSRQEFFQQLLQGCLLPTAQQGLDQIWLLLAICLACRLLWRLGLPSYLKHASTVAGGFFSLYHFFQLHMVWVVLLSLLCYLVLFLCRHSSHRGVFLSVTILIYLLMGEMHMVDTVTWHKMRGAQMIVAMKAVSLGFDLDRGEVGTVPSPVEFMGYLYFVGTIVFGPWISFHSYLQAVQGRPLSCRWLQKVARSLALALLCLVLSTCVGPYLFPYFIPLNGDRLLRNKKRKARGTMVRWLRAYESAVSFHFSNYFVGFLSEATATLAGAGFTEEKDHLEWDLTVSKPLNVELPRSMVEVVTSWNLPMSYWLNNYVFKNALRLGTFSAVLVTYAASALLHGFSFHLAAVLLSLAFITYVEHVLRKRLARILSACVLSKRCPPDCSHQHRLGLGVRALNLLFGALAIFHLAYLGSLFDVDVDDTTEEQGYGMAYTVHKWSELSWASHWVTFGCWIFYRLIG
# [3] = molecular target: T2, Protein-serine O-palmitoleoyltransferase porcupine (Homo sapiens); assay: Inhibition of porcupine in HEK293 cells transfected with pLibin-WNT3A plasmid assessed as downregulation of disheveled 2 phosphorylation at 100 nM after 48 hrs by Western blot analysis; type: cell-based
# [4] = molecular target: T2, Protein-serine O-palmitoleoyltransferase porcupine (Homo sapiens); assay: Inhibition of porcupine in HEK293 cells transfected with pLibin-WNT3A plasmid assessed as downregulation of LRP6 phosphorylation at 100 nM after 48 hrs by Western blot analysis; type: cell-based
# [5] = molecular target: T2, Protein-serine O-palmitoleoyltransferase porcupine (Homo sapiens); assay: Inhibition of porcupine-mediated Wnt/beta-catenin signaling in human PA1 cells assessed as downregulation of Axin2 mRNA expression after 24 hrs by real-time PCR analysis; type: cell-based
# [6] = molecular target: T2, Protein-serine O-palmitoleoyltransferase porcupine (Homo sapiens); assay: Inhibition of porcupine-mediated Wnt/beta-catenin signaling in human PA1 cells assessed as downregulation of disheveled 2 phosphorylation after 48 hrs by Western blot analysis; type: cell-based
# [7] = molecular target: T2, Protein-serine O-palmitoleoyltransferase porcupine (Homo sapiens); assay: Inhibition of porcupine-mediated Wnt/beta-catenin signaling in human PA1 cells assessed as downregulation of LRP6 phosphorylation after 48 hrs by Western blot analysis; type: cell-based
# [8] = molecular target: Protein smoothened (Mus musculus) (UniProt P56726); assay: Inhibition of smo-mediated hedgehog signaling pathway in mouse NIH3T3 cells expressing GRE-Luc reporter gene assessed as inhibition of SAG-induced GRE-Luc reporter activity after 48 hrs by luminescence assay; type: functional, cell-based
# Sequence of Protein smoothened (Mus musculus) (P56726 whole entry): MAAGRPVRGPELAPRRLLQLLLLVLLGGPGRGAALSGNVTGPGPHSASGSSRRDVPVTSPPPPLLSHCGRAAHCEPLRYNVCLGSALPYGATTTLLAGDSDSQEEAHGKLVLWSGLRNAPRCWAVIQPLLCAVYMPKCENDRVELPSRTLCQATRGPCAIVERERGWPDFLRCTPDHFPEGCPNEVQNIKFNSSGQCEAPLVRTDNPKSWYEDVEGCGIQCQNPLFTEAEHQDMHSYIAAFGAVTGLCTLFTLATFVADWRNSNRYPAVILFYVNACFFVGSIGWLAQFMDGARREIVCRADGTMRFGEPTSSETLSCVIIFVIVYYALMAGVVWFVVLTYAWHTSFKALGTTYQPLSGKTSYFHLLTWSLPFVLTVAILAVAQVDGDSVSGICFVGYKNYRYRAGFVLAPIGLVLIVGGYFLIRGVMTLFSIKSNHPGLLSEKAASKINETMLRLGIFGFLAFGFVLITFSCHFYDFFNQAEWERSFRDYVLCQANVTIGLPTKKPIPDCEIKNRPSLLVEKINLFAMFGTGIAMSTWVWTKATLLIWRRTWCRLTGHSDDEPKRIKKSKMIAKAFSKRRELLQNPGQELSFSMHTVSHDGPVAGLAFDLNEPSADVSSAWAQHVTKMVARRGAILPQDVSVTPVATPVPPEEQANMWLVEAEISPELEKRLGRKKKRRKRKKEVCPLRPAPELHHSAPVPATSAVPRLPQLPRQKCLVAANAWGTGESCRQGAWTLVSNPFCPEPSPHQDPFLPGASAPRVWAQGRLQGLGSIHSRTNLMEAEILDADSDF
# [9] = molecular target: Protein smoothened (Mus musculus) (UniProt P56726); assay: Inhibition of smo-mediated hedgehog signaling pathway in mouse NIH3T3-Luc cells assessed as downregulation of Gli mRNA expression at 1 uM after 48 hrs by real-time PCR analysis; type: functional, cell-based
# HEK-293T = assay: Effect on Wnt3A levels in HEK293T cells transfected with pLibin-WNT3A plasmid at 100 nM after 48 hrs by Western blot method; type: functional, cell-based; settings: Homo sapiens
# [10] = molecular target: T3, Protein-serine O-palmitoleoyltransferase porcupine (Mus musculus) (UniProt Q9JJJ7); assay: as §1; type: cell-based
# T3 sequence (whole entry): T1 sequence (Q9JJJ7 whole entry)
IC50 [1] [nM],inhibition [2],inhibition [3],inhibition [4],inhibition [5],inhibition [6],inhibition [7],inhibition [8],inhibition [9],inhibition [10],SMILES,Activity (HEK-293T)
2.1,–,–,–,–,–,–,–,–,–,Cc1cc(-c2ncc(CNC(=O)c3ccc4c(c3)oc3ccccc34)cc2F)ccn1,–
6.5,–,–,–,–,–,–,–,–,–,Cc1cc(-c2ncc(CNC(=O)c3ccc4c(c3)Cc3ccccc3-4)cc2F)ccn1,–
–,Active,Active,Active,Active,Active,Active,inactive,inactive,–,Cc1cc(-c2ncc(CC(=O)Nc3ccc(-c4cnccn4)cn3)cc2C)ccn1,inactive
–,inactive,–,–,inactive,inactive,inactive,–,–,inactive,CS(=O)(=O)c1ccc(C(=O)Nc2ccc(Cl)c(-c3ccccn3)c2)c(Cl)c1,–
